Source: patent US8277815B2, “Pharmaceutical composition comprising an antigen” (Intercell AG, priority 1999, dated 2012)

Assays:
antigen specific T cells = assay: IFN-γ-ELISPOT of lymph node lymphocytes 10 days after subcutaneous vaccination; type: in vivo, C57BL/6 mice; conditions: lymph node lymphocytes of TRP-2 vaccinated mice; negative control with the same MHC restriction
Experimental: Experimental Groups (5 Mice Each) • 1) TRP-2 peptide • 2) TRP-2 peptide+HGH • 3) TRP-2 peptide+pR 60 • 4) TRP-2 peptide+pR 60+HGH
On day 0 mice were injected subcutaneously with a total volume of 100 μl containing the above mentioned compounds. Animals were sacrificed 10 days after injection of the vaccine and mesenteric and inguinal lymph nodes harvested. Results are illustrated in FIG. 1.
Lymphocytes were prepared from lymph nodes as follows: cells were passed through a 70 μm sieve and washed twice with DMEM medium (GIBCO BRL) containing 2.5% fetal calf serum (FCS; SIGMA chemicals). Cells were adjusted to 10^7 cells/ml in complete medium (DMEM+10% FCS). IFN-γ-ELISPOT assays were carried out in triplicate as described (Miyahira et al., 1995). This method is a widely used procedure allowing the quantification of antigen-specific T cells. Lymphocytes were restimulated with TRP-2 peptide or with an ovalbumin-derived peptide (SIINFEKL) with the same MHC restriction serving as negative control.
Spots representing single T cells specific for the peptide used for re-stimulation (and immunization) were counted. The number of background spots observed with cells incubated without peptide(s) was subtracted from all samples.

[1] = tested on: tick-born encephalitis (TBE) virus; conditions: in vivo; cited from earlier work

Row | Substance | spots on restimulation with the ovalbumin-derived control peptide (IFN-γ-ELISPOT) (antigen specific T cells) | vaccine efficacy / protection of animals [1]
1 | SIINFEKL [ovalbumine derived peptide] | no spots detected | 
2 | HGH: Human growth hormone, pituitary-derived factor; SAIZEN, Laboratoires Serono used in Example 1 |  | potentiated vaccine efficacy and led to the protection of animals after only one injection of the vaccine
